Experimental data as given in patent US20190351076A1, “TUMOR CELL XENOGRAFT MODEL IN ZEBRAFISH, AND METHODS OF CONSTRUCTING AND USING THE SAME” (NANJING EMORY BIOTECHNOLOGY CO., LTD., priority 2017, published 2019).

Legend:
SGC-7901 = assay: Human gastric cancer cell line xenograft model in zebrafish (SGC-7901); assay type: in vivo; settings: SGC-7901 xenograft; 4000 μM and 400 μM soak for three days; day 7 after injection
Description: (§1) 4000 μM and 400 μM5-FU were used to soak the zebrafish embryos injected with gastric cancer cell lines (SGC-7901 and AGS) (constructed as in Example 1) for three consecutive days, and 0.1% DMSO was used as a solvent control.
(§2) The red cells were photographed under a fluorescence microscope, and the red fluorescence intensity was quantified by Image Pro Plus software to calculate the anti-tumor effect of 5-FU by a formula: Tumor inhibition rate of the drug=(the fluorescence intensity of the treatment group/the fluorescence intensity of the control group)*100% (see FIG. 4).

gastric cancer = assay: Clinical outcome of 5-FU treatment in the gastric cancer patients; assay type: in vivo, human
AGS = assay: Human gastric cancer cell line xenograft model in zebrafish (AGS); assay type: in vivo; settings: 4000 μM and 400 μM soak for three days, day 7 after injection
Description: as §1, §2

[1] = system: patient-derived primary gastric cancer cells; assay: Patient-derived gastric cancer cell xenograft model in zebrafish, fluorescence quantification; assay type: in vivo, human; settings: 4000 μM and 400 μM soak for three days, day 7 after the injection
Description: (§3) The patient-derived clinical tissue biopsy that was a surgical specimen of gastric cancer was placed in physiological saline. The blood clot, necrotic tissue, fat and connective tissues on the surface of the tumor tissue were removed under aseptic conditions. The tissue was cut by an ophthalmic scissor after sterilization, and washed 2 times with sterile phosphate buffer (pH 7.4). A small amount of phosphate buffer was added, and the tissue was repeatedly cut with an ophthalmic scissor until the tissue became a paste and was about 1 mm^3. 0.25% trypsin was added and the tissue was digested at 37° C. for 10 minutes. […] The cells were re-suspended in RPMI-1640 medium containing 10% FBS (fetal calf serum).
(§4) The primary cells obtained by dissociation were stained with CM-Dil, where the final dye concentration was 2 μg/ml, and the staining time was 1 hour. The dye was removed by centrifugation, and the cells were washed with a phosphate buffer and re-suspended to a cell density of 1×10^4/μl.
(§5) The stained cells were filled into a microinjector. […]
Within 7 days after the injection, the growth, metastasis and spread of the cells derived from the patient in the zebrafish were observed under a fluorescence microscopy and photographed. […]

zebrafish embryos = zebrafish embryos two days after fertilization, treated for 3 days
Description: For the quantitative analysis, the antitumor effect is calculated according to the following formula: the tumor inhibition rate of the drug=(the fluorescence intensity of the treatment group/the fluorescence intensity of the control group)*100%.
1. Four groups, each group having four randomly selected zebrafish embryos that were two days old after fertilization, were placed in a solution of curcumin containing 0.1% DMSO. The curcumin concentrations were 10 μM, 30 μM, 50 μM, and 70 μM, respectively, and the treatment was continued for 3 days.

[2] = system: patient-derived primary lung cancer cells; assay: Patient-derived lung cancer cell xenograft model in zebrafish, fluorescence quantification; assay type: in vivo, human; settings: 50-μM and 5-μM soak for three days, day 7 after the injection
Description: as §3, with “lung” for “gastric”, “mm^3 in size.” for “mm^3.”, “resuspended” for “re-suspended”
as §4, §5
Within 4 days after the injection, the growth, metastasis and spread of the cells derived from the patient in the zebrafish were observed under a fluorescence microscopy and photographed. […]

A549 = assay: Human lung cancer cell line xenograft model in zebrafish (A549); assay type: in vivo; settings: 50 μM and 5 μM soak for three days, day 7 after injection
lung cancer = assay: Clinical outcome of drug treatment in the lung cancer patients; assay type: in vivo, human

`O=c1[nH]cc(F)c(=O)[nH]1` [5-FU, 5-fluorouracil] was tested, and the “sensitivity of gastric cancer cell line to 5-FU” value (SGC-7901) was “sensitive”, the “clinical effect of 5-FU in the treatment of the patients” value (gastric cancer; #1 and #2 patients with gastric cancer) was “not significant” and the “clinical symptoms after treatment with 5-FU” value (gastric cancer; #3 and #4 patients with gastric cancer) was “significantly improved”. For the same compound, the “sensitivity of gastric cancer cell line to 5-FU” value (AGS) was “sensitive”, the “sensitivity of patient-derived gastric cancer cells to 5-FU (tumor inhibition effect)” value ([1]; #1 and #2 patients) was “not sensitive” and the “sensitivity of patient-derived gastric cancer cells to 5-FU (tumor proliferation inhibition)” value ([1]; #3 and #4 patients) was “sensitive”.
`COc1cc(/C=C/C(=O)CC(=O)/C=C/c2ccc(O)c(OC)c2)ccc1O` [curcumin] was tested, and the “highest concentration within the safe range for embryos” value (zebrafish embryos) was 50 µM.
In the case of `CC(=O)O[C@@]12CO[C@@H]1C[C@H](O)[C@@]1(C)C(=O)[C@H](O)C3=C(C)[C@@H](OC(=O)[C@H](O)[C@@H](NC(=O)OC(C)(C)C)c4ccccc4)C[C@@](O)([C@@H](OC(=O)c4ccccc4)[C@H]21)C3(C)C` [docetaxel], the “highest concentration within the safe range for embryos” value (zebrafish embryos) is reported as 10 µM.
For `COc1cc2ncnc(Nc3ccc(F)c(Cl)c3)c2cc1OCCCN1CCOCC1` [gefitinib], the “sensitivity of patient-derived lung cancer cells to gefitinib (tumor inhibition effect)” value ([2]; *5 and *6 patients) was “sensitive”, the “sensitivity of patient-derived lung cancer cells to gefitinib” value ([2]; *7 and *8 patients) was “not sensitive” and the “highest concentration within the safe range for embryos” value (zebrafish embryos) was 50 µM. The “sensitivity of lung cancer cell line to gefitinib” value (A549) was “sensitive”, the “clinical effect of gefitinib in the treatment of the patients” value (lung cancer; *5 and *6 patients with lung cancer) was “significant” and the “clinical symptoms after treatment” value (lung cancer; *7 and *8 patients with lung cancer) was “not significantly improved”.
